From patent publication US20220162192A1 (ESCAPE Bio, Inc., priority 2019, published 2022) come the findings set out here.

For experiment [1], the target named is T1, Recombinant wild type LRRK2 protein (Homo sapiens, UniProt Q5S007).
T1 construct: purchased Life Technologies PR8604B
Nature of the experiment: LanthaScreen Kinase Activity Assay (TR-FRET), wild type LRRK2. The format is biochemical. The conditions noted are these: 25 μM ATP, 400 nM LRRKtide, 2.9 nM kinase, 60 min at room temperature, read-out: LRRK2 WT IC50. The method, then:
(§1) LRRK2 kinase activity was measured using a LanthaScreen™ Kinase Activity Assay from ThermoFisher Scientific. Recombinant wild type or G2019S-LRRK2 protein (Life Technologies, PR8604B or PV4881, respectively), was incubated with a fluorescein-labeled peptide substrate called LRRKtide that is based upon ezrin/radixin/moesin (ERM) (Life Technologies, PV4901) in the presence of ATP and serially diluted compound. After an incubation period of 1 hr, the phosphotransferase activity was stopped and a terbium-labelled anti-pERM antibody (Life Technologies, PV4899) was added to detect the phosphorylation of LRRKtide by measuring the time resolved-Forster resonant energy transfer (TR-FRET) signal from the terbium label on the antibody to the fluorescein tag on LRRKtide, expressed as the 520 nm/495 nm emission ratio. Compound-dependent inhibition of the TR-FRET signal was used to generate a concentration-response curve for IC50 determination.
(§2) The assay was carried out under the following protocol conditions: 1 mM compound in DMSO was serially diluted 1:3, 11 points in DMSO with a Biomek FX and 0.1 μL of the diluted compound was subsequently stamped into the assay plate (384-well format Lumitrac 200, Greiner, 781075) with an Echo Labcyte such that the final compound concentration in the assay was 10 μM to […]. Subsequently, 5 μL of 2× kinase solution (2.9 nM final concentration) was added to the assay plate in assay buffer composed of 50 mM Tris pH 8.5 (Sigma, T6791), 5 mM MgCl2 (Fluka, 63020), 1 mM EGTA (Sigma, E3889), 0.01% BRIJ-35 (Sigma, P1254) and 2 mM DTT. The reaction was started by addition of 2×ATP/LRRKtide solution in assay buffer such that the final concentration was 400 nM LRRKtide and 25 μM ATP. After 60 min incubation at room temperature, the reaction was stopped by addition of […] containing a final concentration of 2 nM anti-pERM antibody and 10 mM EDTA. After a 30 min incubation at RT, the TR-FRET signal was measured on a Wallac 2104 EnVision® multilabel reader at an excitation wavelength of 340 nm and reading emission at 520 nm and 495 nm. The ratio of the 520 nm and 495 nm emission was used to analyze the data.

Experiment [2] deals with T2, Recombinant G2019S-LRRK2 protein (Homo sapiens, UniProt Q5S007, G2019S).
T2 construct: purchased Life Technologies PV4881
Nature of the experiment: LanthaScreen Kinase Activity Assay (TR-FRET), G2019S-LRRK2. Type of experiment: biochemical. The settings on record: class symbols; 25 μM ATP, 400 nM LRRKtide, 2.9 nM kinase, 60 min at room temperature. The method, then:
as §1, §2

Where two headings read alike, the source gives them in different places.

T2 sequence (Q5S007 whole entry G2019S): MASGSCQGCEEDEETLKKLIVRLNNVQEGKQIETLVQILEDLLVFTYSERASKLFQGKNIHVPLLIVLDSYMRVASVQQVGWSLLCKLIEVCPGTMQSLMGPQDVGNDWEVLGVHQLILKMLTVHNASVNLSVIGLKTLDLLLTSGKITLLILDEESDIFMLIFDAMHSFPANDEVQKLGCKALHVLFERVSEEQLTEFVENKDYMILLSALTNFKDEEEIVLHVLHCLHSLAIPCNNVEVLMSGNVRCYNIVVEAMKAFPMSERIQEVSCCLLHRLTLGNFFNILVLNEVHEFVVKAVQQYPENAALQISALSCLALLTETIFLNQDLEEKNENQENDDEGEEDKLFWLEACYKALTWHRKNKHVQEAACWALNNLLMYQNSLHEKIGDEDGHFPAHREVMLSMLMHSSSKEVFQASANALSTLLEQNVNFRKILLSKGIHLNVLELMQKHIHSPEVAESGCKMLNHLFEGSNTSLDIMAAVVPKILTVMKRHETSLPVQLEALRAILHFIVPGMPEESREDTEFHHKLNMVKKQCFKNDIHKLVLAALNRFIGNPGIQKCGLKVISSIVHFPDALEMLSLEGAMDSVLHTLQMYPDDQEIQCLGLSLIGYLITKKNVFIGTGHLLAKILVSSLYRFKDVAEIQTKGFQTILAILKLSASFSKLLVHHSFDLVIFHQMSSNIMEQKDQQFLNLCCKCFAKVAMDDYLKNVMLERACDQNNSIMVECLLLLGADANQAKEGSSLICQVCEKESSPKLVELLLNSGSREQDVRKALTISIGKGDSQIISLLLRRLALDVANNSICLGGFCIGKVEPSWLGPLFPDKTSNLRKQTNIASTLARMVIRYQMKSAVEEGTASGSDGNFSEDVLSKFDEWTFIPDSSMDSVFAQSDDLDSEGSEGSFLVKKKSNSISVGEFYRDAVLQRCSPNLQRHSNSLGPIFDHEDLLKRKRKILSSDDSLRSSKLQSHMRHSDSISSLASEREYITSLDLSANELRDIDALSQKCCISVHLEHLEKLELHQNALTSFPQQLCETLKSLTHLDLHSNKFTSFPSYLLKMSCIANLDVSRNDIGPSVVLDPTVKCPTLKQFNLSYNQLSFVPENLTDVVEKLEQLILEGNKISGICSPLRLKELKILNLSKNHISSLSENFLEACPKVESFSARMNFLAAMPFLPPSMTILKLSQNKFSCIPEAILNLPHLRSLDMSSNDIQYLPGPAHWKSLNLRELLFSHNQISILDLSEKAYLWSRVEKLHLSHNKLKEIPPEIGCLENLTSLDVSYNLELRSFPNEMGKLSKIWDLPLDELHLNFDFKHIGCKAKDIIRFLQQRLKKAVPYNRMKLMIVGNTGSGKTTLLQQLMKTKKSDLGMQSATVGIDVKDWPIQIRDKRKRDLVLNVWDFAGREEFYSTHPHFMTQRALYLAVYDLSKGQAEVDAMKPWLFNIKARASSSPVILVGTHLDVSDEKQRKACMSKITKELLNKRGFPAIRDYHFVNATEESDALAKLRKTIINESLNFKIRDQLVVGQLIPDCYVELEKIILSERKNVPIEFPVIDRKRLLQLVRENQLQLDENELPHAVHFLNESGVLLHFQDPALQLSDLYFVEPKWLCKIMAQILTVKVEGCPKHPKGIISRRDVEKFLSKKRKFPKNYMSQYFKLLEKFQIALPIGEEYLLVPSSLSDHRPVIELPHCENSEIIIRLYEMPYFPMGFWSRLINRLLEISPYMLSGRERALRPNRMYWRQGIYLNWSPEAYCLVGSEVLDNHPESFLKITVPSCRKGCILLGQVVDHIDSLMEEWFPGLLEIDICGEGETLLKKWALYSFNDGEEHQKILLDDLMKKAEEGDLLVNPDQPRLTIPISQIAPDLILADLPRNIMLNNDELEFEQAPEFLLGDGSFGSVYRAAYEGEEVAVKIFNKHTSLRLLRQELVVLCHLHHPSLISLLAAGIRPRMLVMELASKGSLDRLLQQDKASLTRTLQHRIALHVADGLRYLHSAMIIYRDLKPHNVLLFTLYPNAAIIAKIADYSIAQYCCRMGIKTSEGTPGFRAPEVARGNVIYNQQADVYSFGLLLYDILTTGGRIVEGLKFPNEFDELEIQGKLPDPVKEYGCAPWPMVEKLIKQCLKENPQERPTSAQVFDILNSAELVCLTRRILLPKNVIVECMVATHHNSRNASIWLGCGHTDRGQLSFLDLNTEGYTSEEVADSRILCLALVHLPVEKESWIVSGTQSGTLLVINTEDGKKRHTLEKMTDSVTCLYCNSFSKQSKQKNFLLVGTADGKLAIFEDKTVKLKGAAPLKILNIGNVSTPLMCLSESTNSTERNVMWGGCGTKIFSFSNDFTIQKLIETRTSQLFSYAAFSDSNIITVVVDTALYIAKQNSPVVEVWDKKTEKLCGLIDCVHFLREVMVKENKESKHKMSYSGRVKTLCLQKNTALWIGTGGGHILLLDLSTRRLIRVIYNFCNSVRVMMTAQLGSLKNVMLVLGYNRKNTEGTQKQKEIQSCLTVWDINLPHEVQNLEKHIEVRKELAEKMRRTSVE
T1 sequence (Q5S007 whole entry): as the sequence (Q5S007 whole entry G2019S) above, with S2019G counted along it

`Cc1cccc(-c2n[nH]c3ccc(NC(=O)c4c(F)cc5c(cnn5C)c4F)cc23)n1` [Example 71, 4,6-Difluoro-1-methyl-N-(3-(6-methylpyridin-2-yl)-1H-indazol-5-yl)-1H-indazole-5-carboxamide]: the IC50 in experiment [1] (class symbols) is 100 to 1000 nM; in experiment [2], at most 100 nM.

For `Cn1ncc2c(F)c(C(=O)Nc3ccc4[nH]nc(C5=CCCO5)c4c3)c(F)cc21` [Example 72, N-(3-(4,5-Dihydrofuran-2-yl)-1H-indazol-5-yl)-4,6-difluoro-1-methyl-1H-indazole-5-carboxamide], the IC50 in experiment [1] (class symbols) fell in the range of 1000 to 10000 nM; in experiment [2], 100 to 1000 nM.

`Cn1ncc2c(F)c(C(=O)Nc3ccc4[nH]nc(-c5ccncn5)c4c3)c(F)cc21` [Example 73, 4,6-Difluoro-1-methyl-N-(3-(pyrimidin-4-yl)-1H-indazol-5-yl)-1H-indazole-5-carboxamide]: the IC50 in experiment [1] (class symbols) and in experiment [2] was at most 100 nM each time.

As to `Cn1ncc2c(F)c(C(=O)Nc3ccc4[nH]nc(-c5ccccc5C#N)c4c3)c(F)cc21` [Example 74, N-(3-(2-Cyanophenyl)-1H-indazol-5-yl)-4,6-difluoro-1-methyl-1H-indazole-5-carboxamide], the IC50 in experiment [1] (numeric bound instead of class symbol) was over 10000 nM; in experiment [2], 100 to 1000 nM.

With `Cn1ncc2c(F)c(C(=O)Nc3ccc4[nH]nc(-c5ccccc5O)c4c3)c(F)cc21` [Example 75, 4,6-Difluoro-N-(3-(2-hydroxyphenyl)-1H-indazol-5-yl)-1-methyl-1H-indazole-5-carboxamide], the values for the IC50 in experiment [1] (class symbols) and in experiment [2] were 1000 to 10000 nM and 100 to 1000 nM, respectively.

Turning to `Cc1cccc(-c2n[nH]c3ccc(NC(=O)c4c(F)cc5c(cnn5C)c4F)cc23)c1` [Example 76, 4,6-Difluoro-1-methyl-N-(3-(m-tolyl)-1H-indazol-5-yl)-1H-indazole-5-carboxamide], the IC50 in experiment [1] (class symbols) and in experiment [2] was at most 100 nM in each case.

Consider `Cc1ccccc1-c1n[nH]c2ccc(NC(=O)c3c(F)cc4c(cnn4C)c3F)cc12` [Example 77, 4,6-Difluoro-1-methyl-N-(3-(o-tolyl)-1H-indazol-5-yl)-1H-indazole-5-carboxamide], for which the IC50 in experiment [1] (class symbols) and in experiment [2] was 1000 to 10000 nM in each case.

For `Cn1ncc2c(F)c(C(=O)Nc3ccc4[nH]nc(-c5ccccc5F)c4c3)c(F)cc21` [Example 78, 4,6-Difluoro-N-(3-(2-fluorophenyl)-1H-indazol-5-yl)-1-methyl-1H-indazole-5-carboxamide], the IC50 in experiment [1] (class symbols) is 100 to 1000 nM; in experiment [2], at most 100 nM.

Take `Cc1cc(-c2n[nH]c3ccc(NC(=O)c4c(F)cc5c(cnn5C)c4F)cc23)n(C)n1` [Example 79, N-(3-(1,3-Dimethyl-1H-pyrazol-5-yl)-1H-indazol-5-yl)-4,6-difluoro-1-methyl-1H-indazole-5-carboxamide]: the IC50 is 1000 to 10000 nM in experiment [1] (class symbols) and 100 to 1000 nM in experiment [2].

As to `Cc1nn(C)cc1-c1n[nH]c2ccc(NC(=O)c3c(F)cc4c(cnn4C)c3F)cc12` [Example 80, N-(3-(1,3-Dimethyl-1H-pyrazol-4-yl)-1H-indazol-5-yl)-4,6-difluoro-1-methyl-1H-indazole-5-carboxamide], the IC50 in experiment [1] (class symbols) and in experiment [2] was at most 100 nM in each case.

Take `COc1ncccc1-c1n[nH]c2ccc(NC(=O)c3c(F)cc4c(cnn4C)c3F)cc12` [Example 81, 4,6-Difluoro-N-(3-(2-methoxypyridin-3-yl)-1H-indazol-5-yl)-1-methyl-1H-indazole-5-carboxamide]: the IC50 in experiment [1] (class symbols) is 100 to 1000 nM; in experiment [2], at most 100 nM.

Turning to `COc1cncc(-c2n[nH]c3ccc(NC(=O)c4c(F)cc5c(cnn5C)c4F)cc23)c1` [Example 82, 4,6-Difluoro-N-(3-(5-methoxypyridin-3-yl)-1H-indazol-5-yl)-1-methyl-1H-indazole-5-carboxamide], the IC50 in experiment [1] (class symbols) and in experiment [2] was at most 100 nM throughout.
